Experimental data as given in patent US6627399B1, “RNA polymerase transcription promoters and nucleic acid sequencing method” (Riken, priority 1998, dated 2003).

Molecular target: wild-type T7 RNA polymerase (Escherichia phage T7, UniProt P00573)
Experiment: Accelerating effect of polyamines on in vitro transcription activity of T7 RNA polymerase ([α32P]UTP incorporation, gel electrophoresis)
Assay type: biochemical, bacteriophage T7
Design: key: fold radioactivity relative to blank without polyamine
Conditions: polyamine final concentration 2 mM, 37° C. for one hour; amplification of radioactivity of transcription products compared to a blank without polyamine
Experimental: An activation level was evaluated by observing an effect of a polyamine on in vitro transcription activation using bacteriophage T7 RNA polymerase in the reaction system below.
Each polyamine was added to 10 μl of reaction solution (40 mM Tris-Cl, pH 8.0, 8 mM MgCl2, 5 mM DTT, 200 µM GMP, wild-type T7 RNA polymerase 5U, 0.2 μCi [α32P]UTP, dsDNA produced by cleavage of pBluescript [Stratagene] by a restriction enzyme Pvull 500 μM as rNTP template DNA) to yield a final concentration of 2 mM, then reacted at 37° C. for one hour. After the reaction, 10 μl of formamide loading dye (98% formamide, 10 mM EDTA) was added to the products, heated at 90° C. for modification, subsequently analyzed by electrophoresis on 4% acrylamide gel. The gel was dried after the electrophoresis, observed for radioactivity contained in the transcription products using the BAS2000 image analysis system (Fujiphotofilm Inc.), and evaluated for activation level of each polyamine.
Data is given in amplification of radioactivity compared to a blank in which a reaction is carried out in parallel in the same condition excepting no polyamine was added.

Sequence of wild-type T7 RNA polymerase (P00573 whole entry): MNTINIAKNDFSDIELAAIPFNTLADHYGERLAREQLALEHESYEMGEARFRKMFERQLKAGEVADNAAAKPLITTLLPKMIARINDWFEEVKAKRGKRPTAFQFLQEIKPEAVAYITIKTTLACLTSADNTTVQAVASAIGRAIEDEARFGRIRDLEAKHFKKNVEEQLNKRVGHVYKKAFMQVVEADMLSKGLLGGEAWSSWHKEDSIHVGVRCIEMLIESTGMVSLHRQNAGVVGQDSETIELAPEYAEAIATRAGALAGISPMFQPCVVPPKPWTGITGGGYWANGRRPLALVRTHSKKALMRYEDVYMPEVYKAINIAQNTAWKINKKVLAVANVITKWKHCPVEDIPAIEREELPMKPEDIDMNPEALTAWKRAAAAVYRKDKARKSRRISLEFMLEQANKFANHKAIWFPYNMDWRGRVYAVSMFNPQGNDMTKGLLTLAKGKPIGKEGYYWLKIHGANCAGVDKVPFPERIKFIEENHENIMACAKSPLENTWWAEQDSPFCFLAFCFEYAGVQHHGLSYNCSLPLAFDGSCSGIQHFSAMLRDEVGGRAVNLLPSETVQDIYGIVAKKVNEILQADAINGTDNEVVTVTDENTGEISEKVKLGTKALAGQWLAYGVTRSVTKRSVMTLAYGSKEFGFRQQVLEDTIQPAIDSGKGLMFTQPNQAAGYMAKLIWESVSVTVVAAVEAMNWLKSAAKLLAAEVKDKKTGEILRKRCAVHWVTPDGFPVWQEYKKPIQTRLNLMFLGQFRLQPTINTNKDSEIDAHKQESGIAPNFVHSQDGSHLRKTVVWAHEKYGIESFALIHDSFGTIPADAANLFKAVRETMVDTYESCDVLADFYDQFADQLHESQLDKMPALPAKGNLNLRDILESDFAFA

SMILES	Activity Level
CCNCCCCNCCCCNCCCCNCC [Compound 15a, 1,14-di(ethylamino)-5,10-diazatetradecane]	1.21
CCNCCCCNCCCCCNCCCCNCC [Compound 15b, 1,15-di(ethylamino)-5,11-diazapentadecane]	1.18
CCNCCCCNCCCCCCNCCCCNCC [Compound 15c, 1,16-di (ethylamino)-5,12-diazahexadecane]	1.12
CCNCCCCNCCCCCCCNCCCCNCC [Compound 15d, 1,17-di(ethylamino)-5,13-diazaheptadecane]	1.29
CCNCCCCNCCCCCCCCNCCCCNCC [Compound 15e, 1, 18-di(ethylamino)-5,14-diazaoctadecane]	2.52
CCNCCCCNCCCCCCCCCNCCCCNCC [Compound 15f, 1,19-di(ethylamino)-5,15-diazanonadecane]	1.18
CCNCCCCNCCCCCCCCCCNCCCCNCC [Compound 15g, 1,20-di(ethylamino)-5,16-diazaeicosane]	2.01
CCNCCCNCCCCN [Compound 18, 1-ethylamino-8-amino-4-azaoctane]	1.12
NCCCCNCCCCCCCCNCCCCN [Compound 19, 1,18-diamino-5,14-diazaoctadecane]	1.41
CCN(CCCCCCCCN(CC)S(=O)(=O)c1ccc(C)cc1)S(=O)(=O)c1ccc(C)cc1 [Compound 20, N1,N8-di(p-toluenesulfonyl)-di(ethylamino)-octane]	1.11
CCNCCCCCCCCNCC [Compound 21, N1,N8di(ethylamino)-octane]	4.91
CCN(CCCCCN(CC)S(=O)(=O)c1ccc(C)cc1)S(=O)(=O)c1ccc(C)cc1 [Compound 22, N1,N5-di(p-toluenesulfonyl)-di(ethylamino)pentane]	1.43
CCNCCCCCNCC [Compound 23, N1,N5-di(ethylamino)pentane]	3.52
